This note sets out measurements from ChEMBL document CHEMBL1201862, “PubChem BioAssay data set” (2004).

Common to all, as to assay: NCI anticancer screen, dose series, 48 h
In test [1] the test system is NCI-H522.
Test [2] deals with RPMI-8226.
Test [3] has as its system HOP-92.
The subject of test [4] is NCI-H23.
In test [5] the test system is COLO 205.
Test [6] deals with UACC-62.
Test [7] deals with HOP-62.
Test [8] has as its system UACC-257.
Test [9] concerns SNB-19.
The subject of test [10] is Malme-3M.
For test [11], the system named is HT-29.
The subject of test [12] is CAKI-1.
The test system of test [13] is SF-295.
The subject of test [14] is SNB-75.
The test system of test [15] is TK-10.
Test [16] has as its system OVCAR-4.
The subject of test [17] is SK-MEL-28.

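Where inhibition never reached the appropriate level, the endpoint shown equals the highest concentration tested. Otherwise, values were interpolated linearly from a five-concentration, 48-hour dose response in 96-well plates. GI50 is the concentration that inhibits growth by half.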 The source made the active and inactive calls. Rule as the data show it: active = GI50 up to about 1.1 µM and inactive = higher.

In the case of `COc1ccc2c3c([nH]c2c1[N+](=O)[O-])C(C)N(C)CC3` (stereo unspecified), the GI50 was > 100 µM (inactive) in test [1]; 77.4 µM (inactive) in [2]; 34 µM (inactive) in test [3]; > 100 µM (inactive) in test [4]; 50.4 µM (inactive) in test [5]; > 100 µM (inactive) in [6]. Also, the GI50 in [7] is > 100 µM (inactive); in test [8], > 100 µM (inactive); in test [9] it was > 100 µM (inactive); in [10], > 100 µM (inactive); in test [11], 18.9 µM (inactive); in test [12], 36.6 µM (inactive). Moreover, the GI50 in test [13] was 62.8 µM (inactive); in test [14], 72.3 µM (inactive); in test [15], > 100 µM (inactive); in test [16], 38 µM (inactive); in test [17], > 100 µM (inactive).
With `COc1nc(NC2OCC(OC(C)=O)C(OC(C)=O)C2OC(C)=O)c(-c2csc(N)n2)c(=O)n1C` (stereo unspecified), the GI50 in test [1], in [2], in test [3], in test [4], in [5] and in test [6] was > 100 µM (inactive) throughout. Also, the GI50 in test [7], in test [8], in test [9], in [10], in test [11] and in [12] was > 100 µM (inactive) each time. Also, the GI50 in test [13], in test [14], in [15], in test [16] and in test [17] was > 100 µM (inactive) in each case.
Regarding `O=C(O)c1c2c(c(C(=O)O)c3ccccc13)-c1ccccc1-2`, the GI50 is 35.2 µM (inactive) in test [1]; 40.2 µM (inactive) in test [2]; 23.3 µM (inactive) in test [3]; 39.8 µM (inactive) in [4]; 71.3 µM (inactive) in test [5]; 22.9 µM (inactive) in test [6]. In addition, the GI50 in test [7] was 31.7 µM (inactive); in test [8], 47.5 µM (inactive); in test [9], 36.6 µM (inactive); in [10], 31 µM (inactive); in test [11], 47.4 µM (inactive); in test [13] it was 33.6 µM (inactive). The GI50 is 36.7 µM (inactive) in test [14], 36.1 µM (inactive) in test [15] and 20.3 µM (inactive) in test [17].
As to `COc1cc2c(c(OC)c1OC)-c1ccc(SC)c(=O)cc1C(CC(=O)Oc1ccc(F)cc1)C2` (stereo unspecified), the GI50 in [1] is 0.116 µM (active); in test [2], 0.296 µM (active); in [3], 1.21 µM (inactive); in test [4], 0.215 µM (active); in [5], 0.133 µM (active); in test [6] it was 0.129 µM (active). Moreover, the GI50 in [7] is 0.341 µM (active); in [8], 38.9 µM (inactive); in [9], 0.255 µM (active); in test [10] it was 0.392 µM (active); in [11], 0.164 µM (active); in test [12], 0.0676 µM (active). For the same compound, the GI50 is 0.0359 µM (active) in test [13]; 0.234 µM (active) in test [14]; 40.8 µM (inactive) in [15]; 0.741 µM (active) in test [16]; 0.48 µM (active) in test [17].
As to `O=C(N/C(=C\c1ccc(/C=C(\NC(=O)c2ccccc2)c2nc3cc(Cl)ccc3[nH]2)cc1)c1nc2cc(Cl)ccc2[nH]1)c1ccccc1`, the GI50 in test [1] is 13.6 µM (inactive); in [2] it was 3.99 µM (inactive); in test [3], 35.1 µM (inactive); in [4], 27.7 µM (inactive); in test [5] it was 24.3 µM (inactive); in test [6], 16.6 µM (inactive). The GI50 in test [7] was 63.4 µM (inactive); in [8], 36.4 µM (inactive); in test [9], 51.9 µM (inactive); in [10], 87.9 µM (inactive); in test [11], 26.3 µM (inactive); in test [12] it was 40.9 µM (inactive). Also, the GI50 in [13] is 28.4 µM (inactive); in [14], 24.4 µM (inactive); in [15], 28.6 µM (inactive); in test [16], 20.2 µM (inactive); in [17] it was 17.5 µM (inactive).
Turning to `COc1cc2c(cc1OC)[Se]c1cc(OC)c(OC)cc1[Se]2`, the GI50 is 8.75 µM (inactive) in test [1]; > 10 µM (inactive) in [2]; 69 µM (inactive) in test [3]; > 10 µM (inactive) in test [4]; > 10 µM (inactive) in test [5]; > 10 µM (inactive) in test [6]. Further, the GI50 is > 10 µM (inactive) in test [7]; > 10 µM (inactive) in [8]; > 10 µM (inactive) in test [9]; > 10 µM (inactive) in test [10]; 6.81 µM (inactive) in test [11]; > 10 µM (inactive) in test [12]. In addition, the GI50 was 18.3 µM (inactive) in [13]; 6.84 µM (inactive) in test [14]; > 10 µM (inactive) in [15]; > 10 µM (inactive) in test [16]; > 10 µM (inactive) in test [17].
Turning to `O=C(CO)C1CC2C=CC1C2` (stereo unspecified), the GI50 in test [1], in [2], in test [3], in test [4], in [5] and in test [6] was > 100 µM (inactive) each time. The GI50 in test [7], in [8], in [9], in test [10], in test [11] and in [12] was > 100 µM (inactive) in each case. The GI50 in test [13], in [14], in test [15], in [16] and in test [17] was > 100 µM (inactive) throughout.
On to `CC1=C(c2cc(C(=O)Nc3ccc(Cl)c(Cl)c3)nc(N)n2)Sc2ccccc2N1`, for which the GI50 in test [1], in test [2], in test [3], in [4], in test [5] and in test [6] was > 100 µM (inactive) in each case. For the same compound, the GI50 in [7], in [8], in [9], in [10], in [11] and in test [12] was > 100 µM (inactive) throughout. For the same compound, the GI50 in test [13], in [14], in test [15], in test [16] and in test [17] was > 100 µM (inactive) in each case.
For the compound `O=[N+]([O-])[C@@H]1C2C=CC(C2)[C@H]1Cl` (stereo partly specified), the GI50 in [1], in [2], in test [3], in [4], in [5] and in test [6] was > 100 µM (inactive) each time. For the same compound, the GI50 in [7], in test [8], in test [9], in [10], in test [11] and in [12] was > 100 µM (inactive) in each case. The GI50 in test [13], in [14], in [15], in [16] and in test [17] was > 100 µM (inactive) each time.
In the case of `CC1=CC(=O)c2c(C=O)c(O)c(O)c(C(C)C)c2C1=O`, the GI50 in [1] was 12.4 µM (inactive); in test [2], 19.8 µM (inactive); in test [3], 20.9 µM (inactive); in test [4] it was 28.8 µM (inactive); in test [5] it was 25.1 µM (inactive); in [6], 20.3 µM (inactive). Further, the GI50 in [7] is 32.5 µM (inactive); in [9], 39.5 µM (inactive); in test [10], 22.9 µM (inactive); in test [12] it was 21.2 µM (inactive); in [14] it was 40.7 µM (inactive); in [16], 14.6 µM (inactive). In [17], the GI50 is 34 µM (inactive).
Consider `CC1=C(O)C(=O)C2C(=O)C1C1Cc3ccccc3C21` (stereo unspecified), for which the GI50 in [1], in test [2], in test [3], in [4], in test [5] and in test [6] was > 100 µM (inactive) each time. The GI50 in test [7], in test [9], in test [10], in test [11], in [12] and in test [13] was > 100 µM (inactive) each time. The GI50 in test [14] is 60.5 µM (inactive); in test [15], > 100 µM (inactive); in [16] it was > 100 µM (inactive); in test [17] it was > 100 µM (inactive).
With `O=C(CSc1nnc[nH]1)C[P+](c1ccccc1)(c1ccccc1)c1ccccc1`, the GI50 in test [1] is 4.25 µM (inactive); in test [2] it was > 10 µM (inactive); in test [3], 22.9 µM (inactive); in test [4] it was > 100 µM (inactive); in test [5], > 100 µM (inactive); in [6], 99.1 µM (inactive). In addition, the GI50 was > 100 µM (inactive) in test [7]; > 100 µM (inactive) in [8]; > 100 µM (inactive) in [9]; > 100 µM (inactive) in [10]; 54.6 µM (inactive) in test [12]; > 100 µM (inactive) in test [13]. For the same compound, the GI50 in test [14] was 27.4 µM (inactive); in [15], > 100 µM (inactive); in [16] it was 94 µM (inactive); in test [17] it was > 100 µM (inactive).
